The results in this text go back to patent US20230391786A1, “cGAS INHIBITORS” (Eli Lilly and Company, priority 2022, published 2023).

SMILES strings stand for the structures. Counter-ions that a name gives are not always drawn.

Sequence of recombinant human cGAS (Q8N884 whole entry): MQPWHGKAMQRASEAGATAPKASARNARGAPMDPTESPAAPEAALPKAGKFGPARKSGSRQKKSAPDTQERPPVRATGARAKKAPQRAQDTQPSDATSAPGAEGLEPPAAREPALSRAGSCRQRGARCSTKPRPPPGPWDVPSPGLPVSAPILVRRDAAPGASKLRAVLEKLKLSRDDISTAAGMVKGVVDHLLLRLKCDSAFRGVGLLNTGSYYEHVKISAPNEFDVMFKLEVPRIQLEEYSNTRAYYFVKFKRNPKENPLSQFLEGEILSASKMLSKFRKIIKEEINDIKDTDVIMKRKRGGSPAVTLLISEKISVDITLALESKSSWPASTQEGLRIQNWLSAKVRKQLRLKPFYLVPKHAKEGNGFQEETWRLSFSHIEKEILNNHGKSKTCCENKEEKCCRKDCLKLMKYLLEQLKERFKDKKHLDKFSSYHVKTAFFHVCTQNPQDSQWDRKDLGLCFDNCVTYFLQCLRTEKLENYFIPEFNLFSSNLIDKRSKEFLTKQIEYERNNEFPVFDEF

One test addresses recombinant human cGAS (Homo sapiens (Human), UniProt Q8N884). Nature of the test: In vitro inhibition assay of cGAS activity (cGAMP production, RapidFire mass spectrometry). The test is classed as biochemical. The following applies: 10 nM recombinant human cGAS, 60 nM 75-bp dsDNA, ATP, GTP, room temperature 3 hours, read-out: IC50 (μM), In vitro inhibition assay for Compounds 1-94. As for the experimental part: Expression and Purification of Recombinant cGAS Protein: Insert cDNA encoding full-length of human cGAS into a modified bacterial expression vector containing an in-frame His6-tag. Induce the E. coli strain BL21(DE3) harboring the plasmid with 1 mM IPTG (Isopropyl β-D-1-thiogalactopyranoside) at 18° C. overnight. Purify the His6-tagged cGAS protein over HISpur Ni-NTA resin in the presence of benzonase and RNase followed by Superdex 200 size exclusion chromatography with storage buffer (50 mM Tris-HCl pH 7.5, 300 mM NaCl, 1 mM DTT, 10% glycerol).
In vitro inhibition assay of cGAS activity: Add a 5 μL mixture containing 10 mM Tris-Cl pH 7.5, 50 mM NaCl, 5 mM MgCl2, 1 mM DTT, 0.01% Triton X-100, 60 nM 75-bp dsDNA, […], 50 μM GTP, 10 nM of recombinant human cGAS, and serial dilutions of a test compound in DMSO to a 384-well plate and incubate at room temperature for 3 hours. Quench the reaction by the addition of 100 μL of stop solution containing 0.1% formic acid and 0.1 μM internal standard (3′3′-difluoro cGAMP). Measure the amount of cGAMP produced by RapidFire 365 mass spectrometry and evaluate inhibitory effect of a compound by plotting percent specific inhibition of cGAMP production against log concentration of the test compound. Calculate IC50 values using a 4-parameter non-linear logistic equation (y=(S0+((SInf−S0)/(1+((qAC50/x)^nHill))))).
On to `O=C1CCc2c(-c3cn[nH]c3)c3ccc(Cl)c(Cl)c3n21` [Example 68, 7,8-Dichloro-4-(1H-pyrazol-4-yl)-2,3-dihydropyrrolo[1,2-a] indol-1-one], for which the IC50 (commonly the midpoint of a concentration-inhibition curve) worked out at 0.0965 µM.

Consider `CC(=O)Nc1cc(Cl)c(Cl)c2[nH]cc(-c3cn[nH]c3)c12` [Example 66, N-[6,7-Dichloro-3-(1H-pyrazol-4-yl)-1H-indol-4-yl]acetamide], for which the IC50 is 0.0349 µM.

With `O=C(O)C1CCn2c(c(-c3cn[nH]c3)c3ccc(Cl)c(Cl)c32)C1` (single isomer, unassigned) [Example 13, 3,4-Dichloro-10-(1H-pyrazol-4-yl)-6,7,8,9-tetrahydropyrido[1,2-a]indole-8-carboxylic acid], the IC50 was found to be 0.0117 µM.

For `Clc1ccc2c(-c3cn[nH]c3)c3n(c2c1Cl)CCNC3` [Example 37, 6,7-Dichloro-10-(1H-pyrazol-4-yl)-1,2,3,4-tetrahydropyrazino[1,2-a]indole hydrochloride], the IC50 came out at 0.09 µM.

`Nc1nnc(-c2[nH]c3c(Cl)c(Cl)ccc3c2-c2cn[nH]c2)o1` [Example 94, 5-[6,7-Dichloro-3-(1H-pyrazol-4-yl)-1H-indol-2-yl]-1,3,4-oxadiazol-2-amine]: the IC50 came out at 0.0224 µM.

For `OC1CCc2c(-c3cn[nH]c3)c3ccc(Cl)c(Cl)c3n2C1` (single isomer, unassigned) [Example 18, 3,4-Dichloro-10-(1H-pyrazol-4-yl)-6,7,8,9-tetrahydropyrido[1,2-a]indol-7-ol], the IC50 is 0.152 µM.

As to `O=C(Cc1[nH]c2c(Cl)c(Cl)ccc2c1-c1cn[nH]c1)NCc1cnccn1` [Example 28, 2-[6,7-Dichloro-3-(1H-pyrazol-4-yl)-1H-indol-2-yl]-N-(pyrazin-2-ylmethyl)acetamide], the IC50 turned out to be 0.064 µM.

For the molecule `O=C(CN1CCOCC1)N1CCn2c(c(-c3cn[nH]c3)c3ccc(Cl)c(Cl)c32)C1` [Example 45, 1-[6,7-dichloro-10-(1H-pyrazol-4-yl)-3,4-dihydro-1H-pyrazino [1,2-a]indole-2-yl]-2-morpholino-ethanone], the IC50 was 0.0834 µM.

For `O=C(O)CCc1[nH]c2c(Cl)c(Cl)ccc2c1-c1cn[nH]c1` [Example 54, 3-(6,7-Dichloro-3-(1H-pyrazol-4-yl)-1H-indol-2-yl) propanoic acid], the IC50 worked out at 0.0381 µM.

Consider `NC(=O)CNc1cc(Cl)c(Cl)c2[nH]cc(-c3cn[nH]c3)c12` [Example 64, 2-[[6,7-Dichloro-3-(1H-pyrazol-4-yl)-1H-indol-4-yl]amino] acetamide], for which the IC50 is 0.0486 µM.

`O=C(CO)Nc1cc(Cl)c(Cl)c2[nH]cc(-c3cn[nH]c3)c12` [Example 65, N-[6,7-Dichloro-3-(1H-pyrazol-4-yl)-1H-indol-4-yl]-2-hydroxy-acetamide]: the IC50 came out at 0.0158 µM.

Take `Cc1[nH]c2c(Cl)c(Cl)ccc2c1-n1ccnc1` [Example 4, 6,7-Dichloro-3-imidazol-1-yl-2-methyl-1H-indole]: the IC50 is 0.0641 µM.

As for `Clc1ccc2c(-c3cn[nH]c3)c[nH]c2c1Cl` [Example 1, 6,7-Dichloro-3-(1H-pyrazol-4-yl)-1H-indole], the IC50 was determined as 0.0863 µM.

On to `O=C(O)C1CCCn2c(c(-c3cn[nH]c3)c3ccc(Cl)c(Cl)c32)C1` (single isomer, unassigned) [Example 25, 3,4-Dichloro-11-(1H-pyrazol-4-yl)-7,8,9,10-tetrahydro-6H-azepino[1,2-a]indole-9-carboxylic acid], for which the IC50 was 0.0412 µM.

For `N#CCOc1cc(Cl)c(Cl)c2[nH]cc(-c3cn[nH]c3)c12` [Example 58, 2-[[6,7-Dichloro-3-(1H-pyrazol-4-yl)-1H-indol-4-yl]oxy]acetonitrile], the IC50 is 0.0158 µM.

As for `O=C1Cn2c(c(-c3cn[nH]c3)c3ccc(Cl)c(Cl)c32)CCN1CCO` [Example 79, 7,8-Dichloro-3-(2-hydroxyethyl)-11-(1H-pyrazol-4-yl)-2,3-dihydro-1H-[1,4]diazepino[1,7-a]indol-4(5H)-one], the IC50 was determined as 0.0753 µM.

`CN1CCn2c(c(-c3cn[nH]c3)c3ccc(Cl)c(Cl)c32)C1=O` [Example 83, 6,7-Dichloro-2-methyl-10-(1H-pyrazol-4-yl)-3,4-dihydropyrazino[1,2-a]indol-1-one]: the IC50 is 0.0754 µM.

Consider `NS(=O)(=O)N1CCn2c(c(-c3cn[nH]c3)c3ccc(Cl)c(Cl)c32)C1` [Example 40, 6,7-dichloro-10-(1H-pyrazol-4-yl)-3,4-dihydro-1H-pyrazino[1,2-a]indole-2-sulfonamide], for which the IC50 stood at 0.0525 µM.

On to `Clc1ccc2c(-c3cn[nH]c3)c(CNc3nncs3)[nH]c2c1Cl` [Example 10, N-[[6,7-Dichloro-3-(1H-pyrazol-4-yl)-1H-indol-2-yl]methyl]-1,3,4-thiadiazol-2-amine], for which the IC50 is 0.0629 µM.

As for `O=C(O)C1CCCc2c(-c3cn[nH]c3)c3ccc(Cl)c(Cl)c3n2C1` (stereo not drawn) [Example 77, 3,4-Dichloro-11-(1H-pyrazol-4-yl)-7,8,9,10-tetrahydro-6H-azepino[1,2-a]indole-7-carboxylic acid], the IC50 came out at 0.0157 µM.

On to `Cn1ncnc1COCC(=O)N1CCn2c(c(-c3cn[nH]c3)c3ccc(Cl)c(Cl)c32)C1` [Example 46, 1-[6,7-dichloro-10-(1H-pyrazol-4-yl)-3,4-dihydro-1H-pyrazino[1,2-a]indol-2-yl]-2-[(2-methyl-1,2,4-triazol-3-yl)methoxy]ethanone], for which the IC50 was 0.027 µM.

As to `COCC(=O)N1CCn2c(c(-c3cn[nH]c3)c3ccc(Cl)c(Cl)c32)C1` [Example 42, 1-[6,7-dichloro-10-(1H-pyrazol-4-yl)-3,4-dihydro-1H-pyrazino[1,2-a]indol-2-yl]-2-methoxy-ethanone], the IC50 came out at 0.0273 µM.

Regarding `N#CCNc1cc(Cl)c(Cl)c2[nH]cc(-c3cn[nH]c3)c12` [Example 63, 2-[[6,7-Dichloro-3-(1H-pyrazol-4-yl)-1H-indol-4-yl]amino] acetonitrile], the IC50 was 0.0273 µM.

Still in this test, the particulars now being: 10 nM recombinant human cGAS, 60 nM 75-bp dsDNA, ATP, GTP, room temperature 3 hours, read-out: IC50 (μM), In vitro inhibition assay for Compounds 95-348.
As to `CN1C(=O)CCC1CC(=O)N1CCn2c(c(-c3cn[nH]c3)c3ccc(Cl)c(Cl)c32)C1` (stereo not drawn) [Example 324, 5-(2-(6,7-Dichloro-10-(1H-pyrazol-4-yl)-3,4-dihydropyrazino[1,2-a]indol-2(1H)-yl)-2-oxoethyl)-1-methylpyrrolidin-2-one], the IC50 worked out at 0.0626 µM.

For `CC(=O)NCC(=O)NCc1[nH]c2c(Cl)c(Cl)ccc2c1-c1cn[nH]c1` [Example 106, 2-Acetamido-N-((6,7-dichloro-3-(1H-pyrazol-4-yl)-1H-indol-2-yl)methyl)acetamide], the IC50 came to 0.0561 µM.

As to `OCC(O)CNc1cc(Cl)c(Cl)c2[nH]cc(-c3cn[nH]c3)c12` (stereo not drawn) [Example 175, 3-[[6,7-Dichloro-3-(1H-pyrazol-4-yl)-1H-indol-4-yl]amino]propane-1,2-diol], the half-inhibitory concentration (IC50) worked out at 0.0585 µM.

As to `CCN1C(=O)CCC1C(=O)N1CCn2c(c(-c3cn[nH]c3)c3ccc(Cl)c(Cl)c32)C1` (stereo not drawn) [Example 320, 5-(6,7-Dichloro-10-(1H-pyrazol-4-yl)-1,2,3,4-tetrahydropyrazino[1,2-a]indole-2-carbonyl)-1-ethylpyrrolidin-2-one], the IC50 is 0.055 µM.

With `CN1C(=O)CCCC1C(=O)N1CCn2c(c(-c3cn[nH]c3)c3ccc(Cl)c(Cl)c32)C1` (stereo not drawn) [Example 331, 6-(6,7-Dichloro-10-(1H-pyrazol-4-yl)-1,2,3,4-tetrahydropyrazino[1,2-a]indole-2-carbonyl)-1-methylpiperidin-2-one], the IC50 stood at 0.083 µM.

With `CN1C(=O)CCC1C(=O)N1CCn2c(c(-c3cn[nH]c3)c3ccc(Cl)c(Cl)c32)C1` (stereo not drawn) [Example 326, 5-(6,7-Dichloro-10-(1H-pyrazol-4-yl)-1,2,3,4-tetrahydropyrazino[1,2-a]indole-2-carbonyl)-1-methylpyrrolidin-2-one], the IC50 came to 0.0627 µM.

In the case of `COCCOCCC(=O)N1CCn2c(c(-c3cn[nH]c3)c3ccc(Cl)c(Cl)c32)C1` [Example 317, 1-(6,7-Dichloro-10-(1H-pyrazol-4-yl)-3,4-dihydropyrazino[1,2-a]indol-2(1H)-yl)-3-(2-methoxyethoxy)propan-1-one], the IC50 came to 0.0516 µM.

Regarding `COCCC(OC)C(=O)N1CCn2c(c(-c3cn[nH]c3)c3ccc(Cl)c(Cl)c32)C1` (stereo not drawn) [Example 108, 1-[6,7-Dichloro-10-(1H-pyrazol-4-yl)-3,4-dihydro-1H-pyrazino[1,2-a]indol-2-yl]-2,4-dimethoxy-butan-1-one], the IC50 amounted to 0.0621 µM.

Regarding `O=C(CCc1ncc(F)cn1)N1CCn2c(c(-c3cn[nH]c3)c3ccc(Cl)c(Cl)c32)C1` [Example 325, 1-(6,7-Dichloro-10-(1H-pyrazol-4-yl)-3,4-dihydropyrazino[1,2-a]indol-2(1H)-yl)-3-(5-fluoropyrimidin-2-yl)propan-1-one], the IC50 stood at 0.0626 µM.

As for `N#CCC(=O)Nc1cc(Cl)c(Cl)c2[nH]cc(-c3cn[nH]c3)c12` [Example 176, 2-Cyano-N-[6,7-dichloro-3-(1H-pyrazol-4-yl)-1H-indol-4-yl]acetamide], the 50% inhibitory concentration (IC50) came out at 0.0864 µM.
